Results as given in US11413322B2, “Immunotherapy for angiogenic disease” (International Institute of Cancer Immunology, Inc., priority 2014, dated 2022).
Entries after “also recorded” stand apart in the source; their conditions may differ. Ends that are not written are not given here.

Tests used:
[1] = tested on: laser-induced choroid coat angiogenesis; test: Mouse model of laser-induced choroid coat angiogenesis, WT1 peptide vaccine (Example 1); assay type: in vivo, mouse (C57BL/6J)
Description: Male C57BL/6J mice (provided by CLEA Japan, Inc.) were used. At the beginning of the experiment, the mice were 8 weeks old (body weight: about 20 to 25 g). The mice were free-fed with laboratory chow (manufactured by Oriental Yeast Co., Ltd.) and tap water. Six mice were used for each administration group.
The resultant was diluted to 0.227 or 2.27 mg/mL with sterilized PBS. The resultant WT1 solution and Montanide ISA51 VG were mixed so that the volume ratio was 1:1.27 to prepare emulsions of 0.1 μg/μL, 1 μg/μL, and 10 μg/μL. Each of the emulsions was intracutaneously administered at 10 μL/body. Administered doses were 1 μg/body, 10 μg/body, and 100 μg/body. Timing of administrations were on 15, 22, 29, and 36 days after photocoagulation.
Specifically, with respect to the mice of administration groups (groups 1 to 4) administered with the test substance (WT1 peptide), the administration was carried out through the following procedure.
(1) Grouping was carried out on the basis of area of fluorescence leakage on 14 days after the photocoagulation.
(3) Abdomen was shaved with hair clippers, and then intracutaneous administration was carried out using a 30 G injection needle.
(3) Photocoagulation was carried out using Multi Color Laser Photocoagulator (red) (manufactured by NIDEK CO., LTD.) under the following coagulation conditions: spot size of 50 μm, output of 60 mW, and coagulation time of 0.1 second. […]
(2) Dilatation of pupils was carried out with Mydrin-P, and then general anesthesia was performed by intramuscular administration at 1 mL/kg of a mixture of Ketalar injection (manufactured by DAIICHI SANKYO COMPANY, LIMITED) and Celactal injection (manufactured by Bayer) (7:1). (3) Fluorescite (Manufactured by Alcon, Inc.) was injected at 0.1 mL/kg via the tail vein, and then fluorescence ocular fundus angiography was carried out using Micron III. (4) An area of fluorescence leakage was calculated using an image analysis software. […]

[2] = tested on: choroidal neovascular area; test: Mouse laser-induced choroidal neovascularization, WT1235m and WT1332 (Example 2); assay type: in vivo, mouse (CBF-1); conditions: 200 μg/body intracutaneous, 4 administrations, FIG. 5; for choroidal neovascular area compared to PBS administration group: time course 2 to 6 weeks
Description: Two species of WT1 peptides: WT1235m ([…](SEQ ID NO: 19)) and WT1332 ([…](SEQ ID NO: 32)) were used as test substances, and following setting of administration groups were provided to conduct an experiment in the same method and procedure as Example 1. The WT1235m was a peptide in which methionine in position 2 of WT1235 (SEQ ID NO: 9) was replaced with tyrosine.
Fluorescence ocular fundus angiography was carried out at 2 weeks, 3 weeks, 4 weeks, 5 weeks, and 6 weeks after the photocoagulation to analyze time-dependent change of choroidal neovascular area. […] In WT1332 administration group, choroidal neovascular area at 6 weeks after the photocoagulation was reduced to about 70% of choroidal neovascular area at 2 weeks after the photocoagulation.

Sequence	choroidal neovascular area at 6 weeks after the photocoagulation relative to area at 2 weeks after the photocoagulation ([1]; WT135 group, dose not specified (1, 10, 100 μg/body applied), intracutaneous, FIG. 4)	choroidal neovascular area, change with administration (vs PBS administration group) ([1]; any applied dose of 1, 10 and 100 μg/body intracutaneous, time course 2 to 6 weeks, FIG. 3, FIG. 4)	choroidal neovascular area at 6 weeks after the photocoagulation compared with 2 weeks (in words) ([2]; CBF-1 mice)	choroidal neovascular area compared to PBS administration group [2]	choroidal neovascular area at 6 weeks after the photocoagulation relative to area at 2 weeks after the photocoagulation ([2]; CBF-1 mice)
APVLDFAPPGASAYGSLG [WT135, WT1 peptide]	about 50%	Decrease in choroidal neovascular area; also recorded: decreasing trend			
CYTWNQMNL [WT1235m]			the same as that at 2 weeks after the photocoagulation	Decrease in choroidal neovascular area	
KRYFKLSHLQMHSRKH [WT1332, WT1 peptide]				Decrease in choroidal neovascular area	about 70%
